This data set has as its system adult patients under general anesthetic in noncardiac surgery. The class given is in vivo, human. The protocol: The study covered 1,534 patients having received perioperative hemodynamic optimization with use of noradrenaline (in the form of noradrenaline tartrate) to maintain blood pressure under general anesthetic in noncardiac surgery in adults.
The hemodynamic surveillance is performed non-invasively as blood pressure is taken automatically every 2 minutes when inducing anesthesia, then every 5 minutes during the hemodynamic stability period.
Administration of noradrenaline in continuous perfusion with the solution titered at 10 μg/mL.
This solution is injected: • firstly as a continuous perfusion, in an automatic syringe pump, whose speed will be modulated as a function of the weight, age, and initial “blood pressure state” of the patient (notion of treated or untreated hypertension), of the presence or absence of epidural anesthesia combined with general anesthesia. • secondly as an isolated perfusion to prevent causing a bolus of NA during the injection of another drug in the perfusion tubing. This isolated perfusion is branched either on an extra venous catheter independent of the venous access used for the anesthetic, or on a multi-lumen catheter of a central venous path, or on a three-way tap located between the peripheral venous catheter and the end of the perfusion tubing.
The recommended dosages are 0.02 to 0.08 μg/kg/min of noradrenaline.
The suitable dosage is that which delivers blood pressure similar, within a limit of 20% of the preoperative blood pressure of the patient, and systolic blood pressure >100 mmHg
For general anesthetic, noradrenaline administration by continuous perfusion with the solution titered at 10 μg/mL must be started 3 to 4 minutes before inducing anesthesia to prevent hypotension caused by the anesthetic.
The patient is weaned off noradrenaline during the emergence phase by progressively reducing noradrenaline administration dosages as a function of how well the patient is returning to the preoperative blood pressure.
The study covered 1,534 patients 15 to 102 years old (average age 56 years old), with average weight 72 kg (extremes from 33 to 163 kg), mean preoperative blood pressure 138 mmHg (from 95 to 200 mmHg).
The induction procedure for general anesthetic is the same for all the patients: the patients receive 0.2 μg/kg of sufentanil, after 3 minutes 1.5 to 3 mg/kg propofol, then 0.15 mg/kg of cisatracurium.
The patients are intubated 3 minutes after the curare injection and ventilated with 8 mL/kg of theoretical weight.
Anesthesia is maintained using sevoflurane. The perioperative analgesia is handled by continuous injection of remifentanil and/or by iterative injection of sufentanil.
A continuous perfusion of noradrenaline in solution at 10 μg/mL of noradrenaline is administered 4 minutes before inducing anesthesia.
The dosages used are generally comprised between 0.02 and 0.08 μg/kg/min.
The patient is weaned off the continuous perfusion of the noradrenaline solution at 10 μg/mL in the emergence phase by progressively reducing the noradrenaline administration dosages as a function of how well the patient is returning to the preoperative blood pressure.
Clinically: non-invasive blood pressure surveillance is performed every 2 minutes when inducing anesthesia, then every 5 minutes during the hemodynamic stability period.
The quality of the perioperative hemostasis was always noted.
The following elements are systematically monitored and noted in the first 24 hours postoperative: agitation when waking, postoperative nausea and/or vomiting (PONY).
Biologically: troponin was assayed at D1 in 26.0% of patients judged to be at risk: 99.87% were at zero, one patient has a troponine assay at 0.04 and one patient at 0.05 μg/mL (significance threshold is 0.4 μg/mL). These patients were controlled again and their level had normalized at D2.
Urea and creatinine assay on D0 and D1 performed on 26.0% of the patients judged to be at higher risk. […]

Where [1] appears, read: general anesthetic combined with epidural anesthetic.

As for `NC[C@H](O)c1ccc(O)c(O)c1` [noradrenaline, 4-[(1R)-2-amino-1-hydroxyethyl]benzene-1,2-diol], the “effect on blood pressure” value (continuous injection) is given as “immediate, brief, but without tachyphylaxis, long-lasting in continuous injection, rapidly reversible”. Also, the “perioperative blood pressure control” value (five elderly patients with aortal stenosis and hip fracture, general anesthesia) is given as “controlled perioperative blood pressure during general anesthesia without cardiac incidents”. Besides, under setting [1], the “duration of blood pressure control” value is “up to 400 min”; the “tachyphylaxis and vascular filling during prolonged blood pressure control” value was “without tachyphylaxis and without excess vascular filling”. For the same compound, the blood pressure control entry (hemodialyzed patients with renal failure, 0.05 to 0.08 μg/kg/min) is “blood pressure could be controlled”. In addition, under “human, in vivo”, the “cases of superficial venous thromboses detected” value is recorded as “five”, the “hypertension needing nicardipine 1 mg bolus as last resort” value is reported as 26 cases, the other undesirable effects result is recorded as “No other undesirable effect” and the “patients with troponin at zero” value is given as 99.87%. Under “human, in vivo”, the perioperative urine flows result was “net increase”; the postoperative vomiting entry was “none of the patients”; the “renal function (urea and creatinine assay)” value is reported as “no changes to renal function”; the “urea and creatinine postoperative value” is “reduction of their postoperative value at D1”. This compound showed a postoperative nausea (human, in vivo, 24 h) of 1.2%. Also, the “distal peripheral venous thrombosis complications” value (human, in vivo, 4 day) is on record as 0.32%. Besides, the “lucidity at emergence and absence of agitation” value (independent of duration of intervention and patient age) is “noted in all patients”. Where the note is “patients over 80 years old (8.5%)”, the “health risk and surgical outcomes” value is “the health risk was controlled and surgical outcomes were simple”. In addition, the quality of emergence result (young patients without history, 0.02 μg/kg/h) is “better lucidity and quasi-disappearance of postoperative nausea and vomiting”.

The values are drawn from patent US20130123298A1, “PHARMACEUTICAL COMPOSITION FOR THE PREVENTION OF PERIOPERATIVE ARTERIAL HYPOTENSION IN HUMANS” (LABORATOIRE AGUETTANT, priority 2010, published 2013).
